The values that follow are results of earlier work, collected in US5919770A, “Metabolites of ginseng saponins by human intestinal bacteria and its preparation for an anticancer” (Il Hwa Co., Ltd., priority 1996, dated 1999).

The subject of this series is liver cancer cells. The note with it: Japanese Patent No. 89-28759; cited from earlier work.

`CC(C)=CCC[C@](C)(O)[C@H]1CC[C@]2(C)[C@@H]1[C@H](O)C[C@@H]1[C@@]3(C)CC[C@H](O[C@@H]4O[C@H](CO)[C@@H](O)[C@H](O)[C@H]4O)C(C)(C)[C@@H]3CC[C@]12C` [ginsenoside Rh2, 3-0-β-D-glucopyranosyl-20(s)-protopanaxadiol]: the “inhibition of the proliferation of liver cancer cells” value is reported as “inhibit the proliferation of liver cancer cells”.
